Assay results from ChEMBL document CHEMBL1201862, “PubChem BioAssay data set” (2004).
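Step 1: Grow cells in 96-well plates. Step 2: Expose to compound for 48 hours at 5 concentrations. Step 3: Interpolate endpoints linearly; if unreached, use highest concentration. GI50 marks 50% less growth.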 Activity calls are given as the source filed them. Rule as the data show it: active = GI50 up to about 1.1 µM and inactive = higher.

Tests used:
Test in all cases: NCI tumour cell line growth inhibition, 48 h
A549 = tested on: A549
OVCAR-3 = tested on: OVCAR-3
M14 = tested on: M14
NCI-H226 = tested on: NCI-H226
K562 = tested on: K562
HL-60 = tested on: HL-60
NCI-H23 = tested on: NCI-H23
OVCAR-8 = tested on: OVCAR-8
U-251 = tested on: U-251
SF-268 = tested on: SF-268
Malme-3M = tested on: Malme-3M
SK-MEL-5 = tested on: SK-MEL-5
TK-10 = tested on: TK-10
HCC 2998 = tested on: HCC 2998
UACC-62 = tested on: UACC-62
SF-539 = tested on: SF-539
LOX IMVI = tested on: LOX IMVI
CCRF-CEM = tested on: CCRF-CEM
HCT-116 = tested on: HCT-116
SR = tested on: SR

Measured: GI50

CC(NCc1c(O)ccc2ccc(=O)oc12)C(=O)O (stereo not given)
inactive: A549 > 100 µM | OVCAR-3 > 100 µM | M14 > 100 µM | NCI-H226 > 100 µM | K562 > 100 µM | HL-60 > 100 µM | NCI-H23 > 100 µM | OVCAR-8 > 100 µM | U-251 > 100 µM | SF-268 > 100 µM | Malme-3M > 100 µM | SK-MEL-5 > 100 µM | TK-10 > 100 µM | HCC 2998 > 100 µM | UACC-62 > 100 µM | SF-539 > 100 µM | LOX IMVI > 100 µM | CCRF-CEM > 100 µM | HCT-116 > 100 µM | SR > 100 µM

O=C1c2ccccc2N1C(=O)c1ccccc1[N+](=O)[O-]
inactive: A549 45.2 µM | OVCAR-3 18.6 µM | M14 59.7 µM | NCI-H226 12.3 µM | K562 > 100 µM | HL-60 > 10 µM | NCI-H23 > 100 µM | OVCAR-8 25.1 µM | U-251 90.6 µM | SF-268 39.9 µM | Malme-3M 29.6 µM | SK-MEL-5 51.8 µM | TK-10 > 100 µM | HCC 2998 > 100 µM | UACC-62 > 100 µM | SF-539 32.2 µM | LOX IMVI 32.1 µM | CCRF-CEM 48.9 µM | HCT-116 36.1 µM | SR > 100 µM

N#CC1=C(N)N(c2ccccc2)C(c2ccco2)C1(C#N)C#N (stereo not given)
inactive: A549 38.2 µM | OVCAR-3 19 µM | M14 20.6 µM | NCI-H226 18 µM | K562 6.58 µM | HL-60 17.5 µM | NCI-H23 19.9 µM | OVCAR-8 23.3 µM | U-251 21.8 µM | SF-268 34.7 µM | Malme-3M 22.9 µM | SK-MEL-5 17.4 µM | TK-10 16.4 µM | HCC 2998 16.4 µM | UACC-62 23.2 µM | SF-539 19.3 µM | LOX IMVI 16.7 µM | CCRF-CEM 14.3 µM | HCT-116 28.5 µM | SR 20.5 µM
